# Measurements reported in ChEMBL document CHEMBL1201862, “PubChem BioAssay data set” (2004).
# The source made the active and inactive calls.
# Assays:
# [1] = target: Mitogen-activated protein kinase 10 (Homo sapiens, UniProt P53779); assay: Dose response biochemical screening assay for inhibitors of c-Jun N-Terminal Kinase 3 (JNK3). [Related pubchem assays: 746 ]
# CAAX prenyl protease 2 = target: T1, CAAX prenyl protease 2 (Saccharomyces cerevisiae S288c, UniProt Q03530); type: biochemical
# T1 sequence (Q03530 whole entry): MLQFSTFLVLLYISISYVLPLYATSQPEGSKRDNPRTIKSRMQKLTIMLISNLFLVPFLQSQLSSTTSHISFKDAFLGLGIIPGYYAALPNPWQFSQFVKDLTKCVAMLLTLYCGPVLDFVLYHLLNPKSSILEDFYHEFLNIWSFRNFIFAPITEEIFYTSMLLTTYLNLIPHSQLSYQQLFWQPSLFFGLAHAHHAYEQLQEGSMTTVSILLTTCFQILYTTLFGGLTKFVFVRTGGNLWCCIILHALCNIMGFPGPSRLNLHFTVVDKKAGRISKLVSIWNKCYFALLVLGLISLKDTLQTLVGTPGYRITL
# CAAX prenyl protease 1 = CAAX prenyl protease 1 (Saccharomyces cerevisiae S288c, UniProt P47154); assay: yeast CAAX protease Ste24 inhibition – biochemical, S. cerevisiae, plate reader, cherry-pick, dose response (AID 488815)
# Sequence of CAAX prenyl protease 1 (P47154 whole entry): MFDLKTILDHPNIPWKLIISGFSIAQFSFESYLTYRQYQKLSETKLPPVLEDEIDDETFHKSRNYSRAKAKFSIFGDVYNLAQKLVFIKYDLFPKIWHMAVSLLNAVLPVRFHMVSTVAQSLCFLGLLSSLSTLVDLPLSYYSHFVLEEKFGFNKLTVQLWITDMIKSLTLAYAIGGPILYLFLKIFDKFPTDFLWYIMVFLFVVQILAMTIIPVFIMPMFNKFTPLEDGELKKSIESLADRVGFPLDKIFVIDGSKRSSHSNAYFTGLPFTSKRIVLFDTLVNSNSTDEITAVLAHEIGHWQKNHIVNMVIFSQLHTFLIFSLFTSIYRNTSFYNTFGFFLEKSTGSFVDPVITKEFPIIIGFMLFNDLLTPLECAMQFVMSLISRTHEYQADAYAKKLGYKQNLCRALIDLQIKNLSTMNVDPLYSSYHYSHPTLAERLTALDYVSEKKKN
# Hexokinase = Hexokinase (Trypanosoma brucei, UniProt Q38C41); assay: Confirmation assay for inhibitors of Trypanosoma brucei hexokinase 1-Analogue-first series. [Related pubchem assays (depositor defined):AID1430, AID1632, AID2516, AID2560, AID2579, AID2600, AID449725, AID492951]; type: functional
# Sequence of Hexokinase (Q38C41 whole entry): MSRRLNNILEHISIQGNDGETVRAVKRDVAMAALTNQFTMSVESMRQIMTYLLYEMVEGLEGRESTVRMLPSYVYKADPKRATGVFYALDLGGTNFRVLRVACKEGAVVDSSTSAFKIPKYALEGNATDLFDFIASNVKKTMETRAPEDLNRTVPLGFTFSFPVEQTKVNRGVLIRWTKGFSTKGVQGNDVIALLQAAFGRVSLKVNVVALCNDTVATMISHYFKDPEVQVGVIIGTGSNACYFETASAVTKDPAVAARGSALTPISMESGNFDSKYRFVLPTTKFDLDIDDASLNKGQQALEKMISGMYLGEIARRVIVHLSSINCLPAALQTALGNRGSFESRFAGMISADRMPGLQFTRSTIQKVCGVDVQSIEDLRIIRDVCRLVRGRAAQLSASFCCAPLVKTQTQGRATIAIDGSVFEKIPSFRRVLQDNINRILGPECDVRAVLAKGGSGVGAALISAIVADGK
# [2] = target: Eukaryotic translation initiation factor 4E (Mus musculus, UniProt P63073); assay: blockers of eIF4G binding by eIF4E – biochemical, TR-FRET, dose response (AID 855); type: functional;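 note: potency for disrupting eIF4E binding to eIF4GI seen as loss of FRET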
# Sequence of Eukaryotic translation initiation factor 4E (P63073 whole entry): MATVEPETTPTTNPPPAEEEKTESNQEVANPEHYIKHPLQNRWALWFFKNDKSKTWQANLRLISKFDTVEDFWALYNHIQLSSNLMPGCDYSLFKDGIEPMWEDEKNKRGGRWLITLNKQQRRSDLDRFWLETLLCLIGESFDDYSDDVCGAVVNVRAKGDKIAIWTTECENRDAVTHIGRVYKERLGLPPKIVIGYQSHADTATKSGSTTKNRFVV
# [3] = target: DNA dC->dU-editing enzyme APOBEC-3G (Homo sapiens, UniProt Q9HC16); assay: Dose Response confirmation of small molecule APOBEC3G DNA Deaminase Inhibitors via a fluorescence-based single-stranded DNA deaminase assay. [Related pubchem assays (depositor defined):AID493012, AID493028]; type: functional
# Sequence of DNA dC->dU-editing enzyme APOBEC-3G (Q9HC16 whole entry): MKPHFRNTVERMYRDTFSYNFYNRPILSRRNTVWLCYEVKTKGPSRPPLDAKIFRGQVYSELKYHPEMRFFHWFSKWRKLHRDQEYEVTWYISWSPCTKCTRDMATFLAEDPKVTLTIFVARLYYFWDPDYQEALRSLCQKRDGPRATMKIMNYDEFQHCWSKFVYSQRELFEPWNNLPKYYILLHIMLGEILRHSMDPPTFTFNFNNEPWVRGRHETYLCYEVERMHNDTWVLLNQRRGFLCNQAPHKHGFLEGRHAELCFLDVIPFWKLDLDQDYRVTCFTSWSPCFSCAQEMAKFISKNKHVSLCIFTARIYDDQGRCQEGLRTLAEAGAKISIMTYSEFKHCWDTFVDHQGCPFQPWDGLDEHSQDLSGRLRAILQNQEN
# [4] = target: T2, Polyadenylate-binding protein 1 (Homo sapiens, UniProt P11940); assay: MLLE binding blockers, Cy5 peptide tracer – biochemical, fluorescence polarization, Cy5-PAM2 peptide, secondary, miRNA deadenylation inhibitor project, dose response (AID 602260); type: functional; conditions: read-out: IC50_Mean
# T2 sequence (P11940 whole entry): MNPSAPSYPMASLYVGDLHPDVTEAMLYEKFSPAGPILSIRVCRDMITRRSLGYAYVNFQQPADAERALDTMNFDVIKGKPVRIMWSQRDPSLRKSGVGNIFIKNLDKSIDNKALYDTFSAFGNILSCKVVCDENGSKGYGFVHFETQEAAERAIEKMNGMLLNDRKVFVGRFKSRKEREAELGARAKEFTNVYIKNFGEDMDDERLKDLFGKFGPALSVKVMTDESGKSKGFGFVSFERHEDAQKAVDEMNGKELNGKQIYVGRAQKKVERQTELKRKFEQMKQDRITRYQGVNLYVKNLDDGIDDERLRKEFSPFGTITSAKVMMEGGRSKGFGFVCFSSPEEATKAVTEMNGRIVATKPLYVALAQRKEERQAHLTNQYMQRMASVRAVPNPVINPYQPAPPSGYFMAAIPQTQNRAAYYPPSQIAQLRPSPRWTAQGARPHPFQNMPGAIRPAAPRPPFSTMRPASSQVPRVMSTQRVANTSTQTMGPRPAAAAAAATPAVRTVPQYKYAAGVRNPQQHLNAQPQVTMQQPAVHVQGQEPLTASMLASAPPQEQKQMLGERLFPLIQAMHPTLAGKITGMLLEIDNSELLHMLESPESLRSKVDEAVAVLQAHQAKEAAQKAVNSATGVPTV
# cells = type: functional
# [5] = target: T3, Mannose-6-phosphate isomerase (Homo sapiens, UniProt P34949); assay: phosphomannose isomerase inhibition – biochemical, fluorescence intensity, confirmation (AID 1535)
# T3 sequence (P34949 whole entry): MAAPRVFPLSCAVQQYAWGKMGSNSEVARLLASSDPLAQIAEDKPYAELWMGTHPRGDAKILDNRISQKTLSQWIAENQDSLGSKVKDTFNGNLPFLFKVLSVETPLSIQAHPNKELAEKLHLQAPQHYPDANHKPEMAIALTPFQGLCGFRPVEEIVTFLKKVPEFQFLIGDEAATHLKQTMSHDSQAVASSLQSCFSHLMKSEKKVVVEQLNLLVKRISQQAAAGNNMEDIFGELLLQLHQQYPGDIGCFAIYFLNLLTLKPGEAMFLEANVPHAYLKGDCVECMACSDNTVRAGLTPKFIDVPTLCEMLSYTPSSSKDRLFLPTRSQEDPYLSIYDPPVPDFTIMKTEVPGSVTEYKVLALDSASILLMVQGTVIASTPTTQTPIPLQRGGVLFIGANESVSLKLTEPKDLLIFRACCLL
# [6] = target: Glucose-6-phosphate 1-dehydrogenase (Homo sapiens, UniProt P11413); assay: inhibition of Homo sapiens G6PD, dose series – biochemical, fluorescence, selectivity assay for P. falciparum G6PD inhibitor project, dose response (AID 504792); type: functional
# Sequence of Glucose-6-phosphate 1-dehydrogenase (P11413 whole entry, the tested form may be a part): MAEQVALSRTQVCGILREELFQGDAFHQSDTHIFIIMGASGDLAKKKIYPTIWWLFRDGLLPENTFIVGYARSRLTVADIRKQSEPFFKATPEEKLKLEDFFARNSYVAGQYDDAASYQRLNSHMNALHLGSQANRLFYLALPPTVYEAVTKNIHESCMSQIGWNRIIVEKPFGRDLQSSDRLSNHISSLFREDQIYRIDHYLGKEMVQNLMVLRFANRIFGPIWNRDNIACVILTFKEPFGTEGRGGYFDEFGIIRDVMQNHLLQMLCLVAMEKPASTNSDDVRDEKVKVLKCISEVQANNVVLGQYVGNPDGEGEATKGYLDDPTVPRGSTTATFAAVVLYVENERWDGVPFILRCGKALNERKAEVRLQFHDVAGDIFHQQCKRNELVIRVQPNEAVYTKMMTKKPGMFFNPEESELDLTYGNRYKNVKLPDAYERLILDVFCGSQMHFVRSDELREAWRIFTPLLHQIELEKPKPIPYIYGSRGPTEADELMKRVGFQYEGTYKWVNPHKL
# [7] = Fluorescence-based cell-based high throughput dose response assay for inhibitors of the interaction of nucleotide-binding oligomerization domain containing 2 (NOD2) and the receptor-interacting serine-threonine kinase 2 (RIPK2).; type: functional; conditions: Homo sapiens
# [8] = target: Phosphoethanolamine/phosphocholine phosphatase (Homo sapiens, UniProt Q8TCT1); assay: SAR assay for compounds that inhibit PHOSPHO1. [Related pubchem assays (depositor defined):AID1545, AID1565, AID1574]
# Sequence of Phosphoethanolamine/phosphocholine phosphatase (Q8TCT1 whole entry): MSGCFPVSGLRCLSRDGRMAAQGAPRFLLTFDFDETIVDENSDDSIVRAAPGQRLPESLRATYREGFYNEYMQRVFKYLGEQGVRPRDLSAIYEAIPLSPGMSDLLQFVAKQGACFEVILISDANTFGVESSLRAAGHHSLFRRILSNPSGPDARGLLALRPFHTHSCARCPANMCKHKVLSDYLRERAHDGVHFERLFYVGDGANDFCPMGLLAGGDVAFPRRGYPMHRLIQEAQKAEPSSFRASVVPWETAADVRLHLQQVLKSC
# [9] = target: T3, Mannose-6-phosphate isomerase; assay: Confirmation of compounds inhibiting phosphomannose isomerase (PMI) via a fluorescence intensity assay using a high concentration of mannose 6-phosphate. [Related pubchem assays (depositor defined):AID1209, AID1220, AID1545, AID1553, AID1620]
# [10] = Vero E6 cell cytotoxicity, dose response, cytotoxicity control for non-replicating M. tuberculosis project, secondary assay (AID 492998); type: functional, VeroE6; conditions: Vero C1008
# [11] = viability of PTEN-deleted HCT116 cells – cell-based, HCT116 PTEN knockout, dose response (AID 1047); type: functional;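 note: HCT116 colon tumor cells with PTEN knocked out; cells exposed to compound for 60 hours before readout; potency for loss of cell viability measured by luminescence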
# [12] = system: Streptococcus sp. 'group A'; assay: Streptococcus pyogenes SK(-)GAS viability under kanamycin – luminescence, BacTiterGlo, confirmation, counter-screen for streptokinase expression inhibitor project, dose response (AID 1900); type: functional, organism-based
# [13] = THP-1 cell cytotoxicity, dose response, cytotoxicity control for non-replicating M. tuberculosis project (AID 489025); type: functional
# [14] = target: Heat shock protein HSP 90-alpha (Homo sapiens, UniProt P07900); type: functional, organism-based
# [15] = target: T4, Mitochondrial peptide methionine sulfoxide reductase (Bos taurus, UniProt P54149); assay: Absorbance-based biochemical high throughput dose response assay for activators of Methionine sulfoxide reductase A (MsrA).; type: functional
# T4 sequence (P54149 whole entry): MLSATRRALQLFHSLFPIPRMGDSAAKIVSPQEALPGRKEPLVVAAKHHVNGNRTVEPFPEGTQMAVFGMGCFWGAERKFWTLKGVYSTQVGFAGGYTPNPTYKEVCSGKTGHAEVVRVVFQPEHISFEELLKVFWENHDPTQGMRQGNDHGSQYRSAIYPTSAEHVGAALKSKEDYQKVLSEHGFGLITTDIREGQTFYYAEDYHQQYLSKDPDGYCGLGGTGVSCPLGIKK
# [16] = viability of HCT116 lacking mutant beta-catenin – cell-based, human colon tumor, dose response (AID 1045); type: functional;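 note: HCT116 colon tumor cells with beta catenin knocked out; cells exposed to compound for 60 hours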
# Streptococcus = assay: GAS UMAA2166 growth inhibition – luminescence, BacTiterGlo, counter-screen for streptokinase expression inhibitor project, dose response (AID 1915); type: functional, organism-based;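 note: potency for reduction of bacterial viability or growth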
# Beta Lactamase = Beta Lactamase (Pseudomonas aeruginosa, UniProt Q932Y6); assay: BLA reporter interference, concentration series – BLA reporter cells, FRET fluorescence, artefact control for NOD2-RIPK2 interaction inhibitor project, dose response (AID 651552); type: functional, cell-based
# Sequence of Beta Lactamase (Q932Y6 whole entry): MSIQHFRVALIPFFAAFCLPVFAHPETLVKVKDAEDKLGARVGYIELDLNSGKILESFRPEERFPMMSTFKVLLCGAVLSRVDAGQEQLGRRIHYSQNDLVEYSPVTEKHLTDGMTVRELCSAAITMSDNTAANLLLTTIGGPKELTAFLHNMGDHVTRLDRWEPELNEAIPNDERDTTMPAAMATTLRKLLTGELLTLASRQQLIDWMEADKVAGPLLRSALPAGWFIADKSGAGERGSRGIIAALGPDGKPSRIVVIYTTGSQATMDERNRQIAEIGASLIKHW
# Streptokinase A = target: T5, Streptokinase A (Streptococcus pyogenes serotype M1, UniProt P10520); assay: viability-normalized secreted streptokinase activity reduction – plasminogen activation absorbance, OD405, dose response (AID 1914); type: functional, Streptococcus pyogenes M1 GAS;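 note: secreted streptokinase activity via plasminogen activation per viability signal from cell pellet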
# T5 sequence (P10520 whole entry): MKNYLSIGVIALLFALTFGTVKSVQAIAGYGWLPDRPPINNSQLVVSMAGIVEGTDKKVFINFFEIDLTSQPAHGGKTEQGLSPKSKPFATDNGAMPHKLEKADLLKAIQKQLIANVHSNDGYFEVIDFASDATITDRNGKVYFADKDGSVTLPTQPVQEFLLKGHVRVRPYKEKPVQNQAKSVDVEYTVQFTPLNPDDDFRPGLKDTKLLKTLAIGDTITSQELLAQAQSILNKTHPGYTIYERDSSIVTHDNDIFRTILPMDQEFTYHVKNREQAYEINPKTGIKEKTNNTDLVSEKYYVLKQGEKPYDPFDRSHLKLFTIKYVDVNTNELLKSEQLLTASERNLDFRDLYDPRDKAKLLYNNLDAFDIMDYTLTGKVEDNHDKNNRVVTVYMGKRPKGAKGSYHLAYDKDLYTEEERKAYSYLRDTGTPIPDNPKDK
# [17] = target: T2, Polyadenylate-binding protein 1; assay: MLLE domain peptide-binding blockers, IC50 – biochemical, fluorescence polarization, FITC-PAM2 peptide, dose response (AID 602259); type: functional; conditions: read-out: IC50_Mean
# [18] = target: DNA dC->dU-editing enzyme APOBEC-3A (Homo sapiens, UniProt P31941); assay: A3A deaminase inhibition for selectivity – biochemical, dose response (AID 504722); type: functional
# Sequence of DNA dC->dU-editing enzyme APOBEC-3A (P31941 whole entry): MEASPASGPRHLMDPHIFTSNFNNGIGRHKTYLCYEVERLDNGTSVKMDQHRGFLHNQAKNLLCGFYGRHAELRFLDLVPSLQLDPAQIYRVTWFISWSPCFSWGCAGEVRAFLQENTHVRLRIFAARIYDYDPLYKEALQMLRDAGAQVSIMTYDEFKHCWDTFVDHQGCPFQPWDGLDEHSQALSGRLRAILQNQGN
# [19] = Trypanosoma cruzi growth suppression in host cells – NIH3T3 host cells, beta-gal luminescence, confirmation (AID 2044); type: functional, cell-based;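 note: intracellular parasites grown in NIH/3T3 mouse fibroblasts as host cells; luminescent beta-galactosidase reporter signal from transgenic T. cruzi replicating inside host cells; inhibitors lower the luminescence signal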
# Cytochrome P450 2C19 = Cytochrome P450 2C19 (Homo sapiens, UniProt P33261); assay: Cytochrome panel assay with activity outcomes. Panel member name: p450-cyp2c19 Compounds with AC50 equal or less than 10 uM are considered active; type: functional
# Sequence of Cytochrome P450 2C19 (P33261 whole entry): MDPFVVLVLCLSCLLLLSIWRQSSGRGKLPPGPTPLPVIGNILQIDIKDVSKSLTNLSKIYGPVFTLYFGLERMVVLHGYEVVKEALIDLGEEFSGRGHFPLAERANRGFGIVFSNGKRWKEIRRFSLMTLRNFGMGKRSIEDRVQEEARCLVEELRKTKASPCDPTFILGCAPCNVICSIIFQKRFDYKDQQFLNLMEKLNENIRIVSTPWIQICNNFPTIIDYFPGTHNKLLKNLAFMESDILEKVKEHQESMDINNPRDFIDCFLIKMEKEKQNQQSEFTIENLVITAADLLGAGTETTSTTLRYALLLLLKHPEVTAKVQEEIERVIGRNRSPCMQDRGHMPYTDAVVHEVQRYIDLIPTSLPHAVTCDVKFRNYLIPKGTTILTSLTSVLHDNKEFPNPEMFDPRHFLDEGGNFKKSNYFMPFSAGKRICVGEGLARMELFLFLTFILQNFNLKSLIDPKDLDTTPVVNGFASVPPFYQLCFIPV
# Cytochrome P450 2D6 = Cytochrome P450 2D6 (Homo sapiens, UniProt P10635);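 note: CYP2D6 member of a cytochrome P450 panel assay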
# Sequence of Cytochrome P450 2D6 (P10635 whole entry): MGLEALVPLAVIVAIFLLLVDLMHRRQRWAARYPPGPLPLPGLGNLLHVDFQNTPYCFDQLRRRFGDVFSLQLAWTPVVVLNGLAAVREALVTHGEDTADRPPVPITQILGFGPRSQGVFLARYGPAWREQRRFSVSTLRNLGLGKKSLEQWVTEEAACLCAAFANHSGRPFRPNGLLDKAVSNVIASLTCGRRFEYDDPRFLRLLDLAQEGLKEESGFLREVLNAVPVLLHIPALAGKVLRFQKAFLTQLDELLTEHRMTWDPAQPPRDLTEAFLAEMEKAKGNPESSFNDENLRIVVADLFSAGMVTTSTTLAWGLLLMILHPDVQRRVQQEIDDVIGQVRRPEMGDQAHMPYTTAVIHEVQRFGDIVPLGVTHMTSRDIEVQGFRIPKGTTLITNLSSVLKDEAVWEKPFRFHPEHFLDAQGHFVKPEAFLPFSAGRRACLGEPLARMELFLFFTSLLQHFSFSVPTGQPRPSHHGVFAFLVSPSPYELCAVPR
# Sequence of Mitogen-activated protein kinase 10 (P53779 whole entry): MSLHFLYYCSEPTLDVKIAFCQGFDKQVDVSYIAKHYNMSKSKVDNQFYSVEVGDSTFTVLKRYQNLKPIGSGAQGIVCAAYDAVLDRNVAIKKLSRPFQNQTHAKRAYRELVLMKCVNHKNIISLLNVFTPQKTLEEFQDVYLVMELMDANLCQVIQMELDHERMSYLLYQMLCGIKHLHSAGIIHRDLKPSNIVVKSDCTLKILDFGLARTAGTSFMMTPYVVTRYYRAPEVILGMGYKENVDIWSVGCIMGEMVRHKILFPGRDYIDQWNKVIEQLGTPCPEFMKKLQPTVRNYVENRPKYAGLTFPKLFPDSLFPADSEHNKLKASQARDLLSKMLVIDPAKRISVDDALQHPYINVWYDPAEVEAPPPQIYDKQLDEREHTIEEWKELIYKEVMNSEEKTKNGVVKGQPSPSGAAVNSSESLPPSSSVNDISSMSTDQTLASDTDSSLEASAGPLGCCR
structure (smiles),measurement,setting,value
COC(=O)c1ccccc1NC(=O)NCc1cccnc1,IC50,[1],> 93.1 µM (not active)
same,AC50,CAAX prenyl protease 2,26.1 µM (active)
same,AC50,CAAX prenyl protease 1,3.47 µM (active)
O=c1c2ccccc2sn1-c1ccccc1,IC50,Hexokinase,1.11 µM (active)
same,IC50,[2],20.1 µM (active)
same,IC50,[3],6.4 µM (active)
same,IC50,[4],> 66 µM (inactive)
same,IC50,cells,15.7 µM (active)
same,IC50,[5],6.65 µM (active)
same,IC50,[6],8.87 µM (active)
same,IC50,[7],4 µM (active)
same,IC50,[8],0.941 µM (active)
same,IC50,[9],21 µM (active)
same,CC50,[10],13.4 µM (active)
same,EC50,[11],41.1 µM (active)
same,EC50,[12],0.888 µM (active)
same,CC50,[13],10.9 µM (active)
same,AC50,[14],18.7 µM (active)
same,EC50,[15],79.3 µM (inactive)
same,EC50,[16],22.6 µM (active)
same,EC50,Streptococcus,4.17 µM (active)
same,IC50,Beta Lactamase,16.6 µM (inactive)
same,EC50,Streptokinase A,> 150 µM (not active)
same,IC50,[17],> 66 µM (inactive)
same,IC50,[18],> 100 µM (inactive)
same,EC50,[19],0.227 µM (active)
Cc1ccc(Cl)cc1-n1c(=O)cc(N2CC(C)OC(C)C2)[nH]c1=O (stereo not drawn),AC50,Cytochrome P450 2C19,inconclusive
same,AC50,Cytochrome P450 2D6,inconclusive
